Measurements reported in patent US6670187B2, “Mutant Plk protein and gene encoding the same” (Riken, priority 2000, dated 2003).
One block for each molecule: values may come before it. Peptide text beside a SMILES is read from it. * marks the point of attachment. Cbz = O=C(OCc1ccccc1)*

Experiments:
Plk protein = assay: Western blotting of Plk protein level after geldanamycin treatment; assay type: cell-based, human; settings: for Sensitivity of Plk to GA: Western blotting
Method: The cells were lysed with TENSV buffer (Schulte, T. W., et al., J. Biol. Chem., 270, 24585-24588, 1995; Hutchison, K. A., et al., J. Biol. Chem., 267, 13952-13957, 1992) at 4° C. with sonication. The lysates were subjected to electrophoresis on an SDS polyacrylamide gel. Proteins were transferred to Immobilon PVDF membrane (Millipore) and immunoblotted with anti-Plk antibody (Zymed and Santa Cruz), anti-Hsp90 antibody (AC88; Stressgen), anti-GST antibody (Santa Cruz), anti-α-tubulin antibody (Amersham), or anti-Raf-1 antibody (Santa Cruz). Detection was performed with an enhanced chemiluminescence reagent (Pierce).
The immune complexes were collected by immunoprecipitation using anti-Plk antibody and electrophoresed on an SDS-polyacrylamide gel. […] Aliquots of cell lysates were immunoprecipitated with an anti-Plk or anti-Hsp90 antibody. In the same manner, aliquots of non-immunoprecipitated cell lysates were used for Western blotting.
Aliquots of cell lysates were immunoblotted with the indicated antibodies.

U937 cells = assay: Cell viability of geldanamycin-treated U937 cells; assay type: cell-based, human; settings: 100 nM
Hsp90 = assay: In vitro binding assay of GST-fused Plk proteins with HL-60 lysate, Hsp90 detected; parameters: species or system human; settings: 1 μg GST-fused protein, Western blotting
Method: (§1) The PCR products were cloned into pGEM-T Easy vector (Promega) and nucleotide sequence analysis was carried out by using the dideoxynucleotide chain-termination procedure with an Applied Biosystems automated sequencer. The sequence was confirmed to be identical with a previous report (Golsteyn, R., et al., J. Cell Sci., 107, 1509-1517, 1994). Plk cDNA was inserted into pGEX-2T, and GST-fused Plk was expressed in DH5α with 0.1 mM isopropyl β-D-thiogalacto-pyranoside.
(§2) For the binding assay, 1 μg of GST-fused proteins was incubated with the lysate of HL-60 cells (1 mg) in TENSV buffer. GST-fused Plk proteins were precipitated with glutathione-agarose (Sigma). Hsp90 or α-tubulin associated with GST-fused Plk proteins was detected by Western blotting using an anti-Hsp90 or anti-α-tubulin antibody.
(§3) The circle stands for the GST protein, the dotted bar for the kinase domain (residues 53-305) and the black box for the polo-box (residues 410-439). b; GST-fused Plks, expressed in Escherichia coli, were collected with glutathione-agarose, and incubated with the lysate of HL-60 cells. After incubation, GST-fused Plks were precipitated with glutathione-agarose. Hsp90 or α-tubulin associated with GST-fused Plks was detected by Western blotting using an anti-Hsp90 or anti-α-tubulin antibody.

α-tubulin = assay: In vitro binding assay of GST-fused Plk proteins with HL-60 lysate, α-tubulin detected; parameters: species or system human; settings: 1 μg GST-fused protein, Western blotting
Method: as §1, §2, §3

Molecule: CC(C)C[C@@H](C=O)NC(=O)[C@H](CC(C)C)NC(=O)[C@H](CC(C)C)NC(=O)OCc1ccccc1 [MG132] (Cbz-Leu-Leu-Leu-aldehyde)
geldanamycin-induced destabilization of Plk protein (Plk protein; co-treatment with proteasome inhibitor): inhibited

Molecule: COC1=C2C[C@@H](C)C[C@H](OC)[C@H](O)[C@@H](C)/C=C(\C)[C@H](OC(N)=O)[C@@H](OC)/C=C\C=C(/C)C(=O)NC(=CC1=O)C2=O [geldanamycin]
Sensitivity of Plk to GA (Plk protein; A431 cells, Plk S487G, P509S): −
Sensitivity of Plk to GA (Plk protein; A549 cells, Plk D457G): −
Sensitivity of Plk to GA (Plk protein; HL-60 cells, wt Plk): + (Plk protein decreased after GA treatment.)
Sensitivity of Plk to GA (Plk protein; HeLa cells, wt Plk): + (Plk protein decreased after GA treatment.)
Sensitivity of Plk to GA (Plk protein; Hep G2 cells, Plk N496S, R512W): −
Sensitivity of Plk to GA (Plk protein; Jurkat cells, wt Plk): + (Plk protein decreased after GA treatment.)
Sensitivity of Plk to GA (Plk protein; K562 cells, wt Plk): + (Plk protein decreased after GA treatment.)
Sensitivity of Plk to GA (Plk protein; MKN74 cells, Plk E569K): −
Sensitivity of Plk to GA (Plk protein; U937 cells, wt Plk): + (Plk protein decreased after GA treatment.)
cell viability (U937 cells; 12 hours): without decreasing cell viability
cell viability (majority of cells died) (U937 cells; after 2 days): 15.4±3.2%

Molecule: Plk/Hep G2: GST-fused mutant Plk from Hep G2 cells (N496S, R512W in C-terminus)
association of tubulin with Plk (α-tubulin): little effect
binding to Hsp90 (Hsp90): unable to bind

More lines, now with the values ahead:

binding to Hsp90 (Hsp90): can bind
Molecule: K82R: GST-fused kinase negative Plk mutant

association of tubulin with Plk (α-tubulin): little effect
binding to Hsp90 (Hsp90): unable to bind
Molecule: Plk/A431: GST-fused mutant Plk from A431 cells (S487G, P509S in C-terminus)

binding to Hsp90 (Hsp90): can bind
Molecule: full-length Plk: GST-fused human full-length wild-type Plk expressed in Escherichia coli
